Experimental data from US11944605B2, “Rapamycin analogs and uses thereof” (Janssen Pharmaceutica NV, priority 2018, dated 2024).
pIC50: −log10 of the molar value. ≈ marks a conversion by molar mass, not a printed value. Entries after “also recorded” stand apart in the source; their conditions may differ.

Key:
[1] = tested on: pS6K1 (p-p70 S6 Kinase (Thr389)) in MCF-7 cells; assay: AlphaLISA Ultra pS6K1 Assay; assay type: cell-based; conditions: Homo sapiens, 1.5 h; MCF7 cells, 90 min
How it was run: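 MCF-7 cells were seeded for 20–24 h, refed with fresh medium for 2 h, then treated with compound for 90 min at 0.5% final DMSO. Lysates were frozen at −80 °C, thawed and assayed by AlphaLISA with acceptor then donor beads, 2 h each.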

[2] = tested on: mTORC1 over mTORC2; assay: mTORC1 selectivity over mTORC2 at 24 hrs (Western blot based pS6K1 and pAKT assay); assay type: cell-based; conditions: 24 hrs
[3] = tested on: mTORC1 pathway (pS6K1 T389) in PC3 cells; assay: Western blot, mTORC1 pathway (pS6K1) in PC3 cells; assay type: cell-based; conditions: PC3 cells, 24 hours
Procedure: (§1) Western Blot Based pS6K1 and pAKT Assay at 24 and 48 Hour Timepoints
(§2) 1. Seed six well plate with 500,000 PC3 cells per well and incubate for 20˜24 hour.
(§3) 2. Add compounds into the cell plate. Incubate for 24 to 48 hours.
(§4) 4. Plate is placed on ice and the media is removed via aspiration. The wells are washed with 1 mL of 1× PBS and then fully aspirated.
(§5) 5. 110 μL of 1% Triton Lysis Buffer is added and each well is scraped vigorously.
(§6) 6. Cell homogenates are transferred to 1.5 mL eppendorf tubes on ice and spun down at 4° C. for 10 minutes at 10,000 rpm.
(§7) 9. The membranes were washed 3× with TBS-T with a 5 minute incubation between each wash then incubated with secondary antibody (LiCor IRDye 800 Donkey Anti Rabbit) for at least 30 minutes.
(§8) 10. The membranes were washed 3× with TBS-T with a 5 minute incubation between each wash.
(§9) 11. The gels were then incubated for 5 minutes with PBS at room temperature then imaged using a Li-Cor.
(§10) The methods employed were substantially similar to those described above. Compounds were evaluated in PC3 cells, Jurkat cells, wild-type mouse embryotic fibroblast (MEF) cells, tuberous sclerosis 2 (TSC2) negative (TSC −/−) MEF cells, and tuberous sclerosis 2 (TSC2) positive (TSC +/+) MEF cells. Cells were incubated with compounds of the present invention for various time periods (e.g., 5 minutes, 15 minutes, 30 minutes, 90 minutes, 24 hours, or 48 hours), and evaluated according to known methodologies, such as those herein described.

[4] = tested on: mTORC2 pathway (Akt phosphorylation) in PC3 cells; assay: Western blot, mTORC2 pathway (pAkt) in PC3 cells; assay type: cell-based; conditions: 24 hours
Procedure: as §1, §2, §3, §4, §5, §6, §7, §8, §9, §10

[5] = tested on: 4E-BP1 phosphorylation in PC3 cells; assay: Western blot, 4E-BP1 phosphorylation in PC3 cells; assay type: cell-based; conditions: 24 hours
[6] = tested on: pAKT (p-Akt 1/2/3 (Ser473)) in MCF-7 cells; assay: AlphaLISA Ultra pAKT Assay; assay type: cell-based; conditions: Homo sapiens, 1.5 h; MCF7 cells, 90 min
Procedure: AlphaLISA Ultra pAKT Assay
1. MCF-7 cells in Corning 3701 plate and incubate for 20˜24 hour.
16,000˜20,000 cells will be seeded in 36 μL medium per well.
2. Change the culture medium with fresh medium and incubate for another 90 minutes.
3. […]
4. Aspirate […] by HAMILTON, 10 μL rest per well.
5. Add 10 μL 2× lysis buffer using HAMILTON; total volume in wells is 20 μL. Allow cells to shake for 30 min. Cover plate by plastic foil and store plate at −80° C. up to analysis.
6. Thaw cell lysate at RT and transfer 10 ul lysate to assay plate (Optiplate-384).
7. Add 5 μL acceptor beads into assay plate and incubation for 2 hours
8. Add 5 μL donor beads and incubation for 2 hours
9. Count the plate by EnSpire Multimode Plate Reader

[7] = Solubility in 100 mM phosphate buffer (pH 7.4); assay type: physicochemical; conditions: pH 7.4, aqueous buffer
Source text: The compound numbers correspond to the compound numbers in Table 1.

Structure (SMILES) | pIC50 [1] | pIC50 [6] | solubility [7] [µM] | mTORC1 selective @ 24 hrs [2] | inhibition of the mTORC1 pathway [3] | inhibition of mTORC2 (Akt phosphorylation) [4] | inhibition of 4E-BP1 phosphorylation [5]
CO[C@@H]1C[C@H](C[C@@H](C)[C@@H]2CC(=O)[C@H](C)/C=C(\C)[C@@H](O)[C@@H](OC)C(=O)[C@H](C)C[C@H](C)/C=C/C=C/C=C(\C)C(OCCCCCO)C[C@@H]3CC[C@@H](C)[C@@](O)(O3)C(=O)C(=O)N3CCCC[C@H]3C(=O)O2)CC[C@H]1O (stereo partly drawn) [I-113, (21E,23E,25E,26E,33R,34S,35R,36R,38S,40S,43S,44R,45R,54R)-44, 54-dihydroxy-43-[(1R)-2-[(1S,3R,4R)-4-hydroxy-3-methoxy-cyclohexyl]-1-methyl-ethyl]-42-(5-hydroxypentoxy)-45-methoxy-33, 34,35,36,46,47-hexamethyl-65,66-dioxa-55-azatricyclohexatriaconta-21, 23,25(46),26(47)-tetraene-48,49,50,51,52-pentone] | 9.00 to 10.00 |  |  | YES | strong inhibition | do not inhibit | no inhibition
CO[C@@H]1C[C@H](C[C@@H](C)[C@@H]2CC(=O)[C@H](C)/C=C(\C)[C@@H](O)[C@@H](OC)C(=O)[C@H](C)C[C@H](C)/C=C/C=C/C=C(\C)C(OCC(CO)CO)C[C@@H]3CC[C@@H](C)[C@@](O)(O3)C(=O)C(=O)N3CCCC[C@H]3C(=O)O2)CC[C@H]1O (stereo partly drawn) [I-31, (21E,23E,25E,26E,31R,32S,33R,34R,36R,38S,41S,42R,43R,53S)-42, 53-dihydroxy-40-[3-hydroxy-2-(hydroxymethyl)propoxy]-41-[(1S)-2-[(1S,3R, 4R)-4-hydroxy-3-methoxy-cyclohexyl]-1-methyl-ethyl]-43-methoxy-31,32,33,34,44,45-hexamethyl-65, 66-dioxa-54-azatricyclohexatriaconta-21,23,25(44),26(45)-tetraene-46,47,48,49,50-pentone] | 9.00 to 10.00 | ≤ 7.00 | > 60 | YES |  |  | 
COCCOCCOCCOC1C[C@@H]2CC[C@@H](C)[C@@](O)(O2)C(=O)C(=O)N2CCCC[C@H]2C(=O)O[C@H]([C@H](C)C[C@@H]2CC[C@@H](O)[C@H](OC)C2)CC(=O)[C@H](C)/C=C(\C)[C@@H](O)[C@@H](OC)C(=O)[C@H](C)C[C@H](C)/C=C/C=C/C=C/1C (stereo partly drawn) [I-27, (22E,24E,26E,27E,35R,36S,37R,38R,39S,42S,44S,46R,47R,56R)-46,56-dihydroxy-44-[(1R)-2-[(1S, 2R,3R)-3-hydroxy-2-methoxy-cyclohexyl]-1-methyl-ethyl]-47-methoxy-43-[2-[2-(2-methoxyethoxy)ethoxy]ethoxy]-35,36,37,38,48,49-hexamethyl-66,67-dioxa-57-azatricyclohexatriaconta-22, 24,26(48),27(49)-tetraene-50,51,52,53,54-pentone] | 9.00 to 10.00 | ≤ 7.00 | 30 to 60 (≈ 31.4 to 62.8 µg/mL) | YES |  |  | 

Now from value to molecule, other results behind:

pIC50 [1] | pIC50 [6] | solubility [7] [µM] | Structure (SMILES) | mTORC1 selective @ 24 hrs [2] | inhibition of the mTORC1 pathway [3] | inhibition of mTORC2 (Akt phosphorylation) [4] | inhibition of 4E-BP1 phosphorylation [5]
7.00 to 8.00 |  |  | CO[C@@H]1C[C@H](C[C@@H](C)[C@@H]2CC(=O)[C@H](C)/C=C(\C)[C@@H](O)[C@@H](OC)C(=O)[C@H](C)C[C@H](C)/C=C/C=C/C=C(\C)C(OCCS(=O)(=O)CCS(=O)(=O)CCO)C[C@@H]3CC[C@@H](C)[C@@](O)(O3)C(=O)C(=O)N3CCCC[C@H]3C(=O)O2)CC[C@H]1O (stereo partly drawn) [I-102, (21E,23E,25E,26E,34R,35S,36R,37R,39R,41S,44S,45R,46R,55S)-45, 55-dihydroxy-43-[2-[2-(2-hydroxyethylsulfonyl)ethylsulfonyl]ethoxy]-44-[(1S)-2-[(1S,3R, 4R)-4-hydroxy-3-methoxy-cyclohexyl]-1-methyl-ethyl]-46-methoxy-34,35,36,37,47,48-hexamethyl-70, 71-dioxa-56-azatricyclohexatriaconta-21,23,25(47),26(48)-tetraene-49,50,51,52,53-pentone] | YES | strong inhibition | do not inhibit | no inhibition
9.00 to 10.00 |  |  | CO[C@@H]1C[C@H](C[C@@H](C)[C@@H]2CC(=O)[C@H](C)/C=C(\C)[C@@H](O)[C@@H](OC)C(=O)[C@H](C)C[C@H](C)/C=C/C=C/C=C(\C)C(OCP(=O)(CO)CO)C[C@@H]3CC[C@@H](C)[C@@](O)(O3)C(=O)C(=O)N3CCCC[C@H]3C(=O)O2)CC[C@H]1O (stereo partly drawn) [I-106, (21E,23E,25E,26E,31R,32S,33R,34R,36S,38S,41S,42R,43R,52R)-40-[bis(hydroxymethyl)phosphorylmethoxy]-42,52-dihydroxy-4I-[(1R)-2-[(1S,3R,4R)-4-hydroxy-3-methoxy-cyclohexyl]-1-methyl-ethyl]-43-methoxy-31, 32,33,34,44,45-hexamethyl-65,66-dioxa-53-azatricyclohexatriaconta-21, 23,25(44),26(45)-tetraene-46,47,48,49,50-pentone] | YES | strong inhibition | do not inhibit | no inhibition
8.00 to 9.00 |  |  | CO[C@@H]1C[C@H](C[C@@H](C)[C@@H]2CC(=O)[C@H](C)/C=C(\C)[C@@H](O)[C@@H](OC)C(=O)[C@H](C)C[C@H](C)/C=C/C=C/C=C(\C)C(OC[C@H]3CO[C@@H](CO)CO3)C[C@@H]3CC[C@@H](C)[C@@](O)(O3)C(=O)C(=O)N3CCCC[C@H]3C(=O)O2)CC[C@H]1O (stereo partly drawn) [I-118, (23E,25E,27E,28E,32R,33S,34R,35R,36S,39S,41S,45R,46R,55R)-45, 55-dihydroxy-41-[(1R)-2-[(1S,2R,3R)-3-hydroxy-2-methoxy-cyclohexyl]-1-methyl-ethyl]-40-[[(25, 5S)-5-(hydroxymethyl)-1,4-dioxan-2-yl]methoxy]-46-methoxy-32,33,34,35,47,48-hexamethyl-68, 69-dioxa-56-azatricyclohexatriaconta-23,25,27(47),28(48)-tetraene-49,50,51,52,53-pentone] | YES | moderate concentration dependent inhibition; also recorded: strong inhibition | do not inhibit | no inhibition
> 10.00 | ≤ 7.00 | 30 to 60 (≈ 28.3 to 56.7 µg/mL) | CO[C@@H]1C[C@H](C[C@@H](C)[C@@H]2CC(=O)[C@H](C)/C=C(\C)[C@@H](O)[C@@H](OC)C(=O)[C@H](C)C[C@H](C)/C=C/C=C/C=C(\C)C(OCCO)C[C@@H]3CC[C@@H](C)[C@@](O)(O3)C(=O)C(=O)N3CCCC[C@H]3C(=O)O2)CC[C@H]1O (stereo partly drawn) [I-38, (21E,23E,25E,26E,30R,31S,32R,33R,35R,37S,40S,41R,42R,51S)-41, 51-dihydroxy-39-(2-hydroxyethoxy)-40-[(1S)-2-[(1S,3R,4R)-4-hydroxy-3-methoxy-cyclohexyl]-1-methyl-ethyl]-42-methoxy-30, 31,32,33,43,44-hexamethyl-62,63-dioxa-52-azatricyclohexatriaconta-21, 23,25(43),26(44)-tetraene-45,46,47,48,49-pentone] | NO |  |  | 
